Laboratory results reported in US20110189318A1, “METHODS FOR ENHANCING THE EXPRESSION OF INTRACELLULAR REDOX-ASSOCIATED FACTORS” (priority 2010, published 2011).

Experiments:
thioredoxin superfamily = assay: Screen for flavonoid compounds enhancing expression of thioredoxin superfamily in keratinocytes; assay type: cell-based; conditions: normal human epidermal keratinocytes, 10 μM, 24 hours; FIG. 3
Protocol: Normal human epidermal keratinocytes (KK-4009, KURABO) were cultured in Defined Keratinocyte-SFM medium (10744-019, GIBCO) with 5% CO2 under high humidity at 37° C. For the cells with 100% of final density, the medium was replaced with EpiLife™ Calcium-Free Phenol Red Free medium (M-EPICF/PRF-500, KURABO) whose calcium concentration had been adjusted to 1.5 mM. Twenty-four hours later, each of the following agents was added so as to have a final concentration of 10 μM.
Twenty-four hours after adding the above agents, the mRNA expression levels of the redox-associated factors were quantified by the same method as Example 1.

IL1β = assay: Suppression of expression of inflammatory cytokine IL1β mRNA in keratinocytes; assay type: cell-based; conditions: normal human epidermal keratinocytes, kaempferol 10 μM, extracts 0.1%, 24 hours; FIG. 6
Protocol: Normal human epidermal keratinocytes (KK-4009, KURABO) were cultured in Defined Keratinocyte-SFM medium (10744-019, GIBCO) with 5% CO2 under high humidity at 37° C. For the cells with 100% of final density, the medium was replaced with EpiLifeTM Calcium-Free Phenol Red Free medium ([…]) in which calcium concentration had been adjusted to 1.5 mM. Twenty-four hours later, kaempferol was added to have 10 μM of final concentration and each of the following plant extracts was added to have a final concentration of 0.1%. kaempferol ([…], Tokyo Chemical Industry Co., Ltd); K. galanga extract: which is obtained by the extraction of Kaempferia galanga rhizomes with 50% 1,3-butylene glycol; Ginkgo leaf extract: which is obtained by resolving 50% ethanol extract from Ginkgo biloba L. leaves in 1,3-butylene glycol. Twenty-four hours after adding the above agents, RNA was isolated by the same method as Example 1, and the mRNA expression level of the inflammation-associated factor (IL1β) was quantified. The used primers are shown below. The mRNA amount of IL1β was divided by the mRNA amount of the ribosomal protein to obtain the mRNA expression level.

[1] = test system: thioredoxin reductase and glutathione reductase; assay: mRNA expression of redox-associated factors in skin-equivalent models (q-PCR); assay type: cell-based, human; conditions: epidermal layer, 2 μM or 10 μM, 24 hours, FIG. 2
Protocol: Skin-equivalent models were made from normal human keratinocytes (Invitrogen), normal human fibroblasts (ATCC) and collagen I (Sigma), and cultured in Dulbecco's Modified Eagle's Medium (D-MEM) (Invitrogen) with 5% CO2 under high humidity at 37° C. Two μM or 10 μM kaempferol was added into the culture medium, and the models were cultured for twenty-four hours. Then RNA was isolated from epidermal layer of the skin-equivalent models by using a QIAGEN mRNA isolation kit. Subsequently, mRNAs of thioredoxin reductase and glutathione reductase, and 36B4 as an internal standard, were quantified by q-PCR (quantitative PCR by Bio-Rad MyiQ™ single color real time PCR detection system) using the Real-time PCR kit (Bio-Rad). The primers were purchased from QIAGEN (TXNRD2: #QT00070371; GSR; #QT00038325). The amounts of thioredoxin reductase and glutathione reductase were divided by the mRNA amount of 36B4 to obtain the mRNA expression level.

[2] = test system: redox-associated factors (thioredoxin reductase, thioredoxin, glutathione reductase, glutaredoxin); assay: mRNA expression of redox-associated factors in normal human epidermal keratinocytes (RT-PCR); assay type: cell-based; conditions: 10 μM, 24 hours, compared with vitamin E and lipoic acid, FIG. 1
Protocol: Normal human epidermal keratinocytes (KK-4009, KURABO) were cultured in Defined Keratinocyte-SFM medium (10744-019, GIBCO) with 5% CO2 under high humidity at 37° C. For the cells with 100% of final density, the medium was replaced with EpiLife™ Calcium-Free Phenol Red Free medium (M-EPICF/PRF-500, KURABO) whose calcium concentration had been adjusted to 1.5 mM. Twenty-four hours later, kaempferol (K0018, Tokyo Chemical Industry Co., Ltd), vitamin E (95240, FULKA), or lipoic acid ((+/−)-α-lipoic acid (T1395, SIGMA) was added so as to have a final concentration of 10 μM.
Twenty-four hours after adding the above agents, RNA was isolated by using QIAZOL Lysis Reagent (79306, QIAGEN) and purified by using RNeasy Kit (74106, QIAGEN). Subsequently, mRNAs of thioredoxin reductase, thioredoxin, glutathione reductase, glutaredoxin, and the ribosomal protein as an internal standard were quantified by the LightCycler™ software (Roche) using QuantiTect™ SYBR Green RT-PCR Kit (204243, QIAGEN). The Sequences of the used primers are shown below.
The mRNA amounts of thioredoxin reductase, thioredoxin, glutathione reductase and glutaredoxin were divided by the mRNA amount of the ribosomal protein to obtain the mRNA expression levels.

thioredoxin reductase = assay: Thioredoxin reductase activity in lysates of treated keratinocytes; assay type: cell-based; conditions: normal human epidermal keratinocytes, 10 μM, 24 hours, relative to control; FIG. 5
Protocol: Normal human epidermal keratinocytes (KK-4009, KURABO) were cultured in Defined Keratinocyte-SFM medium (10744-019, GIBCO) with 5% CO2 under high humidity at 37° C. For the cells with 100% of final density, the medium was replaced with EpiLife™ Calcium-Free Phenol Red Free medium (M-EPICF/PRF-500, KURABO) whose calcium concentration had been adjusted to 1.5 mM. Twenty-four hours later, kaempferol (K0018, Tokyo Chemical Industry Co., Ltd) or quercetin (173-00403, Wako Pure Chemical Industries, Ltd.) was added so as to have a final concentration of 10 μM. Twenty-four hours after adding the agents, the cells were dissolved in lysis buffer, and the insoluble fraction was removed by centrifugation at 14,000 rpm, 4° C. for 15 minutes. The amount of total protein in the soluble fraction was quantified, and then thioredoxin reductase activity was measured by the method of Arne Holmgren et al. (METHODS IN ENZYMOLOGY, 1995, 252, 199-208).

Compound | expression of the thioredoxin superfamily (mRNA expression level) (thioredoxin superfamily) | suppression of the inflammatory cytokine IL1β (mRNA expression level) (IL1β) | expression of the redox-associated factors (mRNA expression level) [1] | expression of the redox-associated factors (mRNA expression level) [2] | thioredoxin reductase activity (thioredoxin reductase)
O=c1c(O)c(-c2cc(O)c(O)c(O)c2)oc2cc(O)cc(O)c12 [Myricetin, reference compound] | does not have such a function |  |  |  | 
O=c1c(O)c(-c2ccc(O)cc2)oc2cc(O)cc(O)c12 [kaempferol, Kaempferol] | significantly enhance | suppression | significantly enhanced | significantly enhanced | enhance
O=c1c(O)c(-c2ccc(O)c(O)c2)oc2cc(O)cc(O)c12 [quercetin, Quercetin] | significantly enhance |  |  |  | enhance
